Experimental data from paper PMC3481155, “AhR activation underlies the CYP1A autoinduction by A-998679 in rats” (Frontiers in Genetics, 2012).

Legend:
[1] = molecular target: T1, aryl hydrocarbon receptor (AhR) (Homo sapiens, UniProt P35869); test: AhR luciferase reporter assay in HepG2 cells; assay type: cell-based
T1 construct: endogenous in cells; host or cells: HepG2
T1 sequence (P35869 11-848): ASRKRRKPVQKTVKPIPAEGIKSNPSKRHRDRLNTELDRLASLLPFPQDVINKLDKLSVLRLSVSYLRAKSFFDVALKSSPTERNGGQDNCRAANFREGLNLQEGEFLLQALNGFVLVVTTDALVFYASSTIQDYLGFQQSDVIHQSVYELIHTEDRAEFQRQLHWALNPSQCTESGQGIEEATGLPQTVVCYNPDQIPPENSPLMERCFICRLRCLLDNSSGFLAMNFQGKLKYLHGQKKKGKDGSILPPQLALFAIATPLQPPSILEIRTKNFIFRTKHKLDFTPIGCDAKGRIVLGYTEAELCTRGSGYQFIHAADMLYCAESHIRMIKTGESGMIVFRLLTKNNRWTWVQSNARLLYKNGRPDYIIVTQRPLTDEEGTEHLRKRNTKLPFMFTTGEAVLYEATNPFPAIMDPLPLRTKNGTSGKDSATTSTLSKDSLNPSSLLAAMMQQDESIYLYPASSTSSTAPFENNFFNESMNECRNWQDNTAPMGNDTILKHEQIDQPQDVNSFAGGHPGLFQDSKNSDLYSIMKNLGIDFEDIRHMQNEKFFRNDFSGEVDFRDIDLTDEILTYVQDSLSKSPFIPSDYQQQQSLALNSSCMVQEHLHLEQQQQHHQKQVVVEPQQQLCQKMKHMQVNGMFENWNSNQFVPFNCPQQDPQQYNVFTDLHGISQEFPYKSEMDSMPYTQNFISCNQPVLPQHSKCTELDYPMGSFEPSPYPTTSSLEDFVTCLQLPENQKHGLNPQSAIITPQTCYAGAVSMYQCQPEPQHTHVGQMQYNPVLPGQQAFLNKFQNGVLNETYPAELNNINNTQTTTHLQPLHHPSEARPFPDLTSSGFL
Protocol: HepG2 cells were transiently transfected overnight with the construct (1200 bp portion of the human CYP1A1 promoter region containing 2 copies of the functional consensus sequence for the DRE in luc2P luciferase vector (SwitchGear Genomics cat# 114555, Menlo Park, CA) using lipofectin (Invitrogen Life Technologies) at 500 ng construct per million cells. Following transfection, the cells were replated in a 96-well format and dosed for 24 h with 0.1% (v/v) DMSO vehicle, 3-MC at 0.05, 0.1, 0.5, 1, 5, 10 μM, and A-998679 at 1.5625, 3.125, 6.25, 12.5, 25, and 50 μM. Luminescence signal was generated using the Dual-Luciferase Reporter Assay System (Promega, Madison, WI) and detected with a Tecan Genios Pro reader (Männedorf, Switzerland).

AhR [2] = molecular target: T2, AhR (Homo sapiens, UniProt P35869); test: AhR nuclear translocation assay in HepG2 cells; assay type: cell-based; details: 2 μM
T2 construct: endogenous in cells; host or cells: HepG2
T2 sequence (P35869 11-848): T1 sequence (P35869 11-848)
Protocol: HepG2 cells were plated in Lab-Tek II Chamber slides (Nalgene, Rochester, NY) at a seeding density of 50,000 cells/well. The cells were allowed to attach overnight and were treated for 2 h or 24 h with 10 or 40 μM A-998679, 2 μM 3-methylchloranthrene (3-MC) as a positive control, or 0.1% (v/v) DMSO vehicle. The cells were fixed in fresh 3% paraformaldehyde solution in PBS followed by a PBS wash, and were then permeabilized for 5 min using 0.2% Triton X-100 in PBS followed by another PBS wash. The cells were then incubated with blocking buffer consisting of 1% BSA/PBS solutions and immediately incubated with a 1:50 dilution of rabbit polyclonal antibody to AhR (Abcam, Cambridge, MA catalog# 63636) for 1 h at 37°C. Cells were then washed with PBS, re-blocked for 10 min, and stained with an Alexa 546 donkey anti-rabbit secondary antibody (diluted 1:200; Invitrogen Life Technologies) for 45 min at 37°C. The cells were then washed with PBS, stained with 0.5 μM Hoescht solution for 15 min, and again washed with PBS. The chamber slides were sealed and examined under the microscope. Images were acquired with a SPOT RT SE digital camera (Diagnostic Instruments, Sterling Heights, MI) mounted on a Leica (Wetzlar, Germany) DMIRE inverted florescence microscope using a 20× objective. Image acquisition was done using Metamorph® software (Molecular Devices, Sunnyvale, CA) and percent translocation of the AhR probe was quantitated using MetaXpress (Molecular Devices). Twenty microscope fields were evaluated per well (~3000–6000 cells/well).

AhR [3] = test system: AhR; set-up: method as in Nguyen and Bradfield, 2008; Mitchell and Elferink, 2009; details: ref Nguyen and Bradfield, 2008, Mitchell and Elferink, 2009; cited from earlier work
AhR [4] = test system: AhR; set-up: method as in Jinno et al., 2006; details: ref Jinno et al., 2006, read-out: reporter assay EC50; cited from earlier work

## Cc1ccc2cc3c(ccc4ccccc43)c3c2c1CC3 [3MC, 3-methylcholanthrene, reference compound]
[1]; luciferase reporter
  potency to activate AhR relative to A-998679: ~ 8 fold
[1]; luciferase reporter with human DRE construct, 24 h, read-out: EC50, activation of AhR signaling
  EC50: 2.1 µM
[1]; luciferase reporter, 24 h
  maximal increase over vehicle: 97 fold
AhR [2]; 2 h, vehicle 15.6
  AhR nuclear staining (% positive cells) 2 h: 26.3 % positive cells
AhR [2]; 24 h, vehicle 3.4
  AhR nuclear staining (% positive cells) 24 h: 11.1 % positive cells

## Clc1cc2c(cc1Cl)Oc1cc(Cl)c(Cl)cc1O2 [TCDD, 2,3,7,8-Tetrachlorodibenzo-p-dioxin]
AhR [3]
  binding EC50: ~ pM to nM range

## C[C@]12CCc3c(ccc4cc(O)ccc34)[C@@H]1CCC2=O [equilenin]
AhR [4]
  EC50: ~10 µM
